Earlier results on 3 compounds are cited in article PMC7435928, “Preclinical Evaluation of NHS-Activated Gold Nanoparticles Functionalized with Bombesin or Neurotensin-Like Peptides for Targeting Colon and Prostate Tumours” (Molecules, 2020).

Usually Kd stands for the free concentration of one partner at which half of the binding sites on the other are occupied at equilibrium, for simple one-to-one binding.

In series [1] the target is bombesin BBRS1, BBRS2 and BBRS3 receptors. Details: method as in printed for the value. Particulars: target receptors BBRS1, BBRS2; not measured in this paper, ref not given; cited from earlier work.
Series [2] concerns prostate tumour bearing mice. Particulars: 60 min p.i.; cited from earlier work. As to the method:
(§1) Several tracers have been developed to target and facilitate the molecular imaging of colon or prostate cancer, such as: ^68Ga-NGR with over 2.7 ± 0.65% ID/g in colon tumour at 30 min p.i., [^18F]FDG with 2.5 ± 0.5% ID/g [^18F]FDG in colon tumours, [^18F]fluorocholine (FCH) with 7.9 ± 5% ID/g at 60 min p.i. in prostate tumour bearing mice. Compared to these, the values obtained for tumour uptake using the four studied nanotracers are between 2.53 ± 0.26% ID/g for ^68Ga-DOTA-NMN-AuNP to 9.82 ± 2.28% ID/g for ^68Ga-DOTA-PEG(4)-BBN(7-14)-AuNP in colon tumours and 2.79 ± 0.4% ...

The next series concerns colon tumour. Particulars: in vivo; cited from earlier work. On the procedure:
as §1

Turning to `COc1ccc(C2(CNC(=O)[C@](C)(Cc3c[nH]c4ccccc34)NC(=O)Nc3ccc([N+](=O)[O-])cc3)CCCCC2)nc1` [PD 176252], the Kd in series [1] is 1 nM. Take `C[N+](C)(CF)CCO` [[^18F]fluorocholine (FCH), [^18F]fluorocholine]: the Tumour uptake in series [2] was 7.9 ± 5 % ID/g. As to [^18F]FDG, the Tumour uptake in the series with colon tumour is on record as 2.5 ± 0.5 % ID/g.
